The test system of data set [1] is human-derived osteosarcoma cell line MG-63. Put plainly: Cytotoxicity evaluation, relative cell metabolic activity (CellTiter-Blue), MG-63. It is filed as cell-based. The conditions noted are these: Homo sapiens, 24 h, mean ± SD, read-out: Relative metabolic activity of MG-63 cells. The procedure: (§1) All target compounds were studied to determine their cytotoxic activity at various concentrations of each compound (10–50 µM) against human-derived osteosarcoma cell line MG-63 (ATCC, CRL-1427) and mouse-derived preosteoblast cell line MC3T3-E1 (ATCC, CRL-2593) (Table 4 and Figures S1-S4 in the Supporting Information). For the comparison, naturally occurring betulinic, oleanolic (1b) and ursolic (1c) acids as well as their 3-oxo analogs 2a-c and doxorubicin, were also subjected to the cytotoxicity tests.
(§2) Cytotoxicity of betulinic acid, ursolic acid and oleanolic acid derivatives was evaluated using human-derived osteosarcoma cell line MG63 (ATCC, CRL-1427) and mouse-derived preosteoblast cell line MC3T3-E1 (ATCC CRL-2593). Before conducting the experiments, both cell lines were continuously cultured according to the ATCC product sheet instructions. Briefly, both cell lines were expanded in α-MEM medium supplemented with 10% FBS and 1% pen-strep and maintained at 37 °C in a humidified atmosphere with 5% CO2.
(§3) Each cell line was plated at a concentration of 1 × 10^4 cells/well in 96-well plate. The plates were incubated for 24 h to allow cell attachment and growth. Bioactive substances were solubilized in methanol prior further dilution in cell culture media. Following the cell incubation period, the culture media was removed and the dilutions of active substance (10, 25 and 50 µM) in cell culture media were added. The culture medium only and its dilutions with methanol solution respective to the bioactive substance concentrations were used as the controls. […] Cells were treated with bioactive substance solutions for 24 h. After 24 h incubation, relative cell metabolic activity was assessed using CellTiter-Blue® (CTB) analysis (Promega, JAV). […] was measured at 590 nm using microplate reader (Infinite® 200 PRO, Tecan, USA). The relative cell metabolic activity was calculated for each bioactive substance concentration as well as for the controls. […] Statistically significant differences between sample groups are assessed using a one-way ANOVA test and then corrected using the Šídák multiple comparison test. Statistically significant differences were considered to be those with a P-values less than 0.05 (p < 0.05).
(§4) Cytotoxicity of betulinic acid, ursolic acid and oleanolic acid derivatives was evaluated using human-derived osteosarcoma cell line MG63 (ATCC, CRL-1427) and mouse-derived preosteoblast cell line MC3T3-E1 (ATCC CRL-2593). Before conducting the experiments, both cell lines were continuously cultured according to the ATCC product sheet instructions. Briefly, both cell lines were expanded in α-MEM medium supplemented with 10 % FBS and 1 % pen-strep and maintained at 37 °C in a humidified atmosphere with 5 % CO2.
(§5) […]
A general note: Resazurin is reduced to fluorescent resorufin, in cell work by metabolically active cells.

Data set [2] can be described thus: Water solubility determination by quantitative 1H-NMR in D2O. It is filed as physicochemical. The conditions noted are these: D2O adjusted with NaOD, aqueous buffer, thermodynamic from solid; qNMR in D2O, pH 8.0-8.5 (NaOD), room temperature, potassium hydrogen phthalate external standard. From the text:
The obtained PCT-derived sodium phosphonates were subjected to water solubility tests (Table 3). For this purpose, we used a quantitative ^1H-NMR approach in D2O, using potassium hydrogen phthalate as an external standard (for experimental details see Supporting Information). The presence of the basic forms of phosphonates[80] was ensured by the careful addition of NaOD, maintaining pH 8.0–8.5 during the quantification, which is 2–3 units higher than the pKa of phosphonic acid disalt. […] This is by at least two to three orders of magnitude higher than the reported solubilities of the parent natural triterpenic acids. […] Indeed, phosphonic acids are more acidic and easier ionizable than carboxylic acids. This ionic character helps to increase the aqueous solubility as exemplified by here described compounds.
Water solubility determination
To suspension of PCT phosphonate sample (10 mg) in D2O (500 µL) 0.8% solution of NaOD in D2O was added dropwise until pH = 8-8.5 (<100 µL). Obtained suspension was sonified in ultrasonic bath for 10 min. Undissolved particles were separated by centrifugation. Clear D2O solution was carefully transferred to NMR tube equipped with external standard vial.
Formula (1) was used to determine the solubility of PCT sample in the D2O.
[…]
SolPCT - solubility of PCT sample in D2O at room temperature (mg/mL)
IPCT - integral value of PCT signal of choice
Ist - integral value of external standard signal of choice
NPCT - number of integrated protons of PCT
Nst - number of integrated protons of external standard
V - volume of used D2O (mL) mst - mass of external standard (mg)
Mbet - molecular weight of PCT (g•mol−1)
Mst - molecular weight of external standard - potassium hydrogen phthalate (204.22 […]
Wst - assay of the external standard (99.5 %)

Data set [3] has as its system mouse-derived preosteoblast cell line MC3T3-E1. Kind of data set: Cytotoxicity evaluation, relative cell metabolic activity (CellTiter-Blue), MC3T3-E1. It is filed as cell-based. The conditions noted are these: Mus musculus, 24 h, mean ± SD, read-out: Relative metabolic activity of MC3T3-E1 cells. The procedure:
as §1, §2, §3, §4, §5

In general, solubility refers to how much of the substance goes into solution per volume. Low readings indicate little dissolved substance, high ones much dissolved substance. In the case of `C=C(C)C1CCC2(C(=O)OCP(=O)([O-])[O-])CCC3(C)C(CCC4C5(C)CCC(O)C(C)(C)C5CCC43C)C12.[Na+].[Na+]` (stereo not shown) [8a], the viability at 10 µM in data set [1] (MG-63, 10 µM) was 158 ± 5%; in data set [3] (MC3T3-E1, 10 µM) it was 108 ± 5%. The viability at 25 µM was found to be 124 ± 25% in data set [1] (MG-63, 25 µM) and 119 ± 4% in data set [3] (MC3T3-E1, 25 µM). The viability at 50 µM was determined as 159 ± 17% in data set [1] (MG-63, 50 µM) and 101 ± 5% in data set [3] (MC3T3-E1, 50 µM). Besides, the solubility at 10 min in data set [2] amounted to 3000 µg/mL.

Values taken from paper PMC11564732, “Synthesis and preliminary cytotoxicity evaluation of water soluble pentacyclic triterpenoid phosphonates” (Scientific Reports, 2024).
